Measurements: PMC6342617 (Cancer chemotherapy and pharmacology, 2018)

Experiments:
[1] = tested on: triple-negative breast cancer; conditions: patients with triple-negative breast cancer; cited from earlier work
[2] = tested on: hepatocellular carcinoma; conditions: patients with hepatocellular carcinoma; cited from earlier work
[3] = phase I dose escalation study; cited from earlier work
[4] = tested on: gastric cancer; conditions: patients with gastric cancer; cited from earlier work
[5] = Tivantinib steady-state plasma pharmacokinetics; format: in vivo, human
[6] = tested on: substrates of CYP1A, CYP2C9, CYP2C19, CYP3A4 or P-glycoprotein; conditions: cited from earlier work
[7] = tested on: germ cell tumors; conditions: patients with germ cell tumors; cited from earlier work
[8] = tested on: cytochrome P450 enzymes; conditions: ref Hycamtin® prescribing information; cited from earlier work

SMILES	Response rate, monotherapy [1]	Responses, monotherapy [2]	Maximum tolerated dose, single agent [3]	Responses, monotherapy [4]	AUC0–8 hr ([5]; Dose Level 1 (tivantinib 240 mg), n=1)	Clsys (oral clearance), range of observed values ([5]; Dose Levels −1 and A1 (tivantinib 120 mg), n=11)	AUC(0-t) ([5]; human, plasma, oral, AUC0–12 hr, median, All Dose Levels, n=12)	Interaction with substrates of CYP1A, CYP2C9, CYP2C19, CYP3A4 or P-glycoprotein [6]	Responses, monotherapy [7]	Induction or inhibition of cytochrome P450 enzymes [8]
O=C1NC(=O)[C@@H](c2cn3c4c(cccc24)CCC3)[C@@H]1c1c[nH]c2ccccc12 [tivantinib]	5%	No responses were seen	no maximum tolerated dose was identified	No responses were seen	7,243 ng × hr/ml	2.4 to 44.5 L/h	10500 ng·h/mL	has not been shown to have a significant interaction	No responses were seen	
CC[C@@]1(O)C(=O)OCc2c1cc1n(c2=O)Cc2cc3c(CN(C)C)c(O)ccc3nc2-1 [topotecan]										has not been shown to induce or inhibit cytochrome P450 enzymes
